Measured values: US20120295920A1, “5-AMINO-4-HYDROXYPENTOYL AMIDES” (priority 2009, published 2012)
Where two headings read alike, the source gives them in different places.

Key:
HIV-1 wild-type strain = experiment: General antiviral assay, cell-based virus replication in MT4-LTR-EGFP cells, wild-type strain; conditions: wild-type strain IIIB, MT4-LTR-EGFP cells
Procedure: (§1) MT4-LTR-EGFP cells were obtained by transfecting MT4 cells with a selectable construct encompassing the sequences coding for the HIV long terminal repeat (LTR) as a promoter for the expression of enhanced green fluorescent protein (EGFP) and subsequent selection of permanently transfected cells.
(§2) The antiviral activity on different HIV-1 strains, was determined in a cell-based virus replication assay. Here MT4-LTR-EGFP cells (150,000 cells/ml) are infected (multiplicity of infection [MOI] of 0.0025) in the presence or absence of different inhibitor concentrations. Two methodologies for read-out were used, either quantification of GFP-fluoresence on day 3 post-infection, or quantification of cell-viability using rezazurin (as described by Fields, R. D., and M. V. Lancaster (1993) Am. Biotechnol. Lab. 11:48-50) on day 4 post infection.

HIV-1 IIIB = experiment: 50% HS-Rezazurin: antiviral assay in the presence of 50% human serum, MT-4 cells, resazurin cell viability; type: cell-based
Procedure: For the Antiviral assay in the presence of 50% human serum MT-4 cells were infected with HIV-1 IIIB at a MOI of 0.001 to 0.01 CCID50/cell in RPMI1640 medium. Following 1 h of incubation, cells were washed and plated into a 96-well plate containing serial dilutions of compound in the presence of 10% fetal calf serum (FCS), or 50% human serum. After 4 days incubation, the EC50 in the presence of 50% human serum was determined by a cell viability assay using resazurin.
The last column lists the results for the wild-type strain IIB in the presence of 50% human serum MT-4 cells.

mock-infected MT4 cells = experiment: General toxicity assay on mock-infected MT4 cells with CMV-EGFP reporter (CC50); type: cell-based
[1] = tested on: HIV-1 Strain A (M046I, I084V); experiment: microbe, parasite or virus in culture; type: cell-based; conditions: clinical isolate Strain A; read-out: A EC50
Procedure: as §1, §2
(§3) In the following Table, Strains A, B, and C are clinical isolates that include the following protease inhibitor resistance mutations in the protease domain (background mutations are not mentioned).

[2] = tested on: HIV-1 Strain C (G048G/V, V082A); experiment: microbe, parasite or virus in culture; type: cell-based; conditions: clinical isolate Strain C; read-out: C EC50
Procedure: as §1, §2, §3

[3] = tested on: HIV-1 Strain B (M046I, I050V); experiment: microbe, parasite or virus in culture; type: cell-based; conditions: clinical isolate Strain B; read-out: B EC50
Procedure: as §1, §2, §3

[4] = MT4LTR cells, read-out: TOX-MT4LTR (CC50)
[5] = mock-infected MT4 cells with CMV-EGFP reporter, read-out: TOX-MT4CMV (CC50)

Row | SMILES | EC50 (HIV-1 wild-type strain) | EC50 (HIV-1 IIIB) | CC50 (mock-infected MT4 cells; [4]) | EC50 [1] | EC50 [2] | EC50 [3] | CC50 (mock-infected MT4 cells; [5]) | CC50 (mock-infected MT4 cells; read-out: TOX-MT4CMV (CC50))
1 | COC(=O)N[C@H](C(=O)N[C@@H](Cc1ccc(-c2ccc(OC)nc2)cc1)[C@@H](O)C[C@@H](Cc1ccccc1Cl)C(=O)N[C@H]1c2cc(Cl)ccc2OC[C@H]1O)C(C)(C)C [Compound 58] | 3.9 nM | 13.3 nM | > 32000 nM | 6 nM | 1.8 nM | 2.5 nM | – | –
2 | CN(C)c1ccc(-c2ccc(C[C@H](NC(=O)O[C@H]3CO[C@H]4OCC[C@H]43)[C@@H](O)C[C@@H](Cc3ccccc3F)C(=O)N[C@H]3c4cc(F)ccc4OC[C@H]3O)cc2)cn1 [Compound 68] | 3 nM | 9.4 nM | – | 2.2 nM | 1.3 nM | 1.5 nM | > 32000 nM | –
3 | COC(=O)N[C@H](C(=O)N[C@@H](Cc1ccc(-c2ccc(OC)nc2)cc1)[C@@H](O)C[C@@H](Cc1ccccc1F)C(=O)N[C@H]1c2cccc(F)c2OC[C@H]1O)C(C)(C)C [Compound 50] | 2.8 nM | 6.9 nM | > 32000 nM | 2 nM | 1.1 nM | 1.4 nM | – | –
4 | COC(=O)N[C@H](C(=O)N[C@@H](Cc1ccc(-c2ccc(OC)nc2)cc1)[C@@H](O)C[C@@H](Cc1ccccc1F)C(=O)N[C@H]1c2cc(C)ccc2OC[C@H]1O)C(C)(C)C [Compound 66] | 0.9 nM | 7.7 nM | > 32000 nM | 0.8 nM | 0.5 nM | 0.8 nM | – | –
5 | COC(=O)N[C@H](C(=O)N[C@@H](Cc1ccc(-c2ccc(OC)nc2)cc1)[C@@H](O)C[C@@H](Cc1cccc(OC(F)(F)F)c1)C(=O)N[C@H]1c2cc(Cl)ccc2OC[C@H]1O)C(C)(C)C [Compound 42] | 4.2 nM | 23.7 nM | > 32000 nM | 7.2 nM | 3.9 nM | 4.1 nM | > 32000 nM | –
6 | COC(=O)N[C@H](C(=O)N[C@@H](Cc1ccc(-c2cnc(N(C)C)nc2)cc1)[C@@H](O)C[C@@H](Cc1cccc(OC(F)(F)F)c1)C(=O)N[C@H]1c2cc(Cl)ccc2OC[C@H]1O)C(C)(C)C [Compound 49] | 4.1 nM | 19 nM | > 32000 nM | 5.2 nM | 2.9 nM | 3.5 nM | – | –
7 | CN(C)c1ccc(-c2ccc(CC(NC(=O)C(NC(=O)CN3CCCC3)C(C)(C)C)C(O)CC(Cc3ccccc3F)C(=O)NC3c4cc(Cl)ccc4OCC3O)cc2)cn1 (centres unmarked) [Compound 19] | 5.3 nM | 22.1 nM | – | 3.7 nM | 1.8 nM | 2.4 nM | > 27000 nM | –
8 | COC(=O)NC(C(=O)NC(Cc1ccc(-c2ccc(OC)nc2)cc1)C(O)CC(Cc1cccc(Cl)c1)C(=O)NC1c2ccccc2OCC1O)C(C)(C)C (centres unmarked) [Compound 3] | 2.6 nM | 13.6 nM | – | 2.3 nM | 2.4 nM | 3.5 nM | > 32000 nM | –
9 | COC(=O)NC(C(=O)NC(Cc1ccc(-c2cnc(N(C)C)cn2)cc1)C(O)CC(Cc1ccccc1F)C(=O)NC1c2cc(Cl)ccc2OCC1O)C(C)(C)C (centres unmarked) [Compound 22] | 3.8 nM | 26.4 nM | – | 3.5 nM | 2.1 nM | 2.6 nM | > 32000 nM | –
10 | COC(=O)N[C@H](C(=O)N[C@@H](Cc1ccc(-c2cnc(N(C)C)nc2)cc1)[C@@H](O)C[C@@H](Cc1ccccc1F)C(=O)N[C@H]1c2cc(Cl)ccc2OC[C@H]1O)C(C)(C)C [Compound 43] | 2 nM | 10.6 nM | > 32000 nM | 1.7 nM | 1.1 nM | 1 nM | – | –
11 | COC(=O)N[C@H](C(=O)N[C@@H](Cc1ccc(-c2cnc(OC(C)C)cn2)cc1)[C@@H](O)C[C@@H](Cc1cccc(F)c1)C(=O)N[C@H]1c2cc(Cl)ccc2OC[C@H]1O)C(C)(C)C [Compound 46] | 5.3 nM | 34.6 nM | 10000 nM | 9.4 nM | 3.7 nM | 5.6 nM | – | –
12 | COC(=O)N[C@H](C(=O)N[C@@H](Cc1ccc(-c2ccc(N(C)C)nc2)cc1)[C@@H](O)C[C@@H](Cc1ccccc1F)C(=O)N[C@H]1c2ccc(Cl)cc2OC[C@H]1O)C(C)(C)C [Compound 86] | 2.6 nM | 17.1 nM | > 32000 nM | 7.5 nM | 1.3 nM | 1.4 nM | – | –
13 | Cc1cccc(C)c1OCC(=O)N[C@@H](Cc1ccccc1)[C@@H](O)C[C@H](Cc1ccccc1)NC(=O)[C@H](C(C)C)N1CCCNC1=O [LPV] | 13 nM | 61 nM | > 32000 nM | 110 nM | 31 nM | 320 nM | 20000 nM | –
14 | COC(=O)NC(C(=O)NC(Cc1ccc(-c2cc(C)nc(C)c2)cc1)C(O)CC(Cc1ccccc1F)C(=O)NC1c2cc(Cl)ccc2OCC1O)C(C)(C)C (centres unmarked) [Compound 12] | 4 nM | 35.7 nM | – | 3.7 nM | 2.2 nM | 3 nM | > 32000 nM | –
15 | COC(=O)NC(C(=O)NC(Cc1ccc(-c2ccc(N(C)C)nc2)cc1)C(O)CC(Cc1cccc(OC)c1)C(=O)NC1c2ccccc2OCC1O)C(C)(C)C (centres unmarked) [Compound 15] | 2 nM | 8.7 nM | – | 2.1 nM | 1.3 nM | 1.2 nM | > 32000 nM | –
16 | COC(=O)N[C@H](C(=O)N[C@@H](Cc1ccc(-c2csc(OC)n2)cc1)[C@@H](O)C[C@@H](Cc1ccccc1F)C(=O)N[C@H]1c2cc(Cl)ccc2OC[C@H]1O)C(C)(C)C [Compound 29] | 5.5 nM | 13.7 nM | – | 6.6 nM | 3.1 nM | 3.4 nM | 10000 nM | –
17 | COc1ccc(-c2ccc(C[C@H](NC(=O)O[C@H]3CO[C@H]4OCC[C@H]43)[C@@H](O)C[C@@H](Cc3ccccc3F)C(=O)N[C@H]3c4cc(Cl)cc(F)c4OC[C@H]3O)cc2)cn1 [Compound 81] | 4.1 nM | 13.4 nM | > 32000 nM | 2.8 nM | 1.3 nM | 2.4 nM | – | –
18 | CCc1ncc(-c2ccc(CC(NC(=O)C(NC(=O)OC)C(C)(C)C)C(O)CC(Cc3ccccc3F)C(=O)NC3c4cc(Cl)ccc4OCC3O)cc2)s1 (centres unmarked) [Compound 14] | 3 nM | 24.6 nM | – | 3.5 nM | 1.3 nM | 2.1 nM | > 32000 nM | –
19 | COC(=O)N[C@H](C(=O)N[C@@H](Cc1ccc(-c2cnc(C3CC3)s2)cc1)[C@@H](O)C[C@@H](Cc1ccccc1F)C(=O)N[C@H]1c2cc(Cl)ccc2OC[C@H]1O)C(C)(C)C [Compound 28] | 3.2 nM | 22.5 nM | – | 3.1 nM | 1.4 nM | 2.1 nM | > 32000 nM | –
20 | COC(=O)NC(C(=O)NC(Cc1ccc(-c2ccc(OC)nc2)cc1)C(O)CC(Cc1ccccc1F)C(=O)NC1CCCCC1O)C(C)(C)C (centres unmarked) [Compound 100] | 1.8 nM | 5.9 nM | > 32000 nM | 1.8 nM | 0.8 nM | 0.7 nM | – | –
21 | COC(=O)N[C@H](C(=O)N[C@@H](Cc1ccc(-c2cnc(N(C)C)nc2)cc1)[C@@H](O)C[C@@H](Cc1cccc(F)c1)C(=O)N[C@H]1c2cc(F)ccc2OC[C@H]1O)C(C)(C)C [Compound 62] | 3.2 nM | 16.3 nM | > 32000 nM | 2.2 nM | 0.9 nM | 1.5 nM | – | –
22 | COc1cccc(C[C@H](C[C@H](O)[C@H](Cc2ccc(-c3ccc(OC)nc3)cc2)NC(=O)O[C@H]2CO[C@H]3OCC[C@H]32)C(=O)N[C@H]2c3cc(Cl)ccc3OC[C@H]2O)c1 [Compound 70] | 2.6 nM | 11.4 nM | > 32000 nM | 1.6 nM | 1.2 nM | 1.6 nM | > 32000 nM | –
23 | CN(C)c1ccc(-c2ccc(C[C@H](NC(=O)[C@@H](NC(=O)C3(C#N)CC3)C(C)(C)C)[C@@H](O)C[C@@H](Cc3ccccc3F)C(=O)N[C@H]3c4cc(F)ccc4OC[C@H]3O)cc2)cn1 [Compound 35] | 2.1 nM | 8.4 nM | > 32000 nM | 4 nM | 2 nM | 2.2 nM | – | > 32000 nM
24 | COC(=O)N[C@H](C(=O)N[C@@H](Cc1ccc(-c2ccc(OC)nc2)cc1)[C@@H](O)C[C@@H](Cc1cccc(F)c1)C(=O)N[C@H]1c2cc(Cl)ccc2OC[C@H]1O)C(C)(C)C [Compound 39] | 3 nM | 16.4 nM | > 32000 nM | 3.9 nM | 1.3 nM | 2.1 nM | > 32000 nM | –
